SMILES strings stand for the structures.

This note sets out measurements from US8097617B2, “Organic compounds” (Novartis AG, priority 2006, dated 2012).

The target of this test is T1, human DPP-IV (Homo sapiens, UniProt P27487).
T1 construct: Human DPP-IV consisting of amino acids 39 to 766 followed by a C-terminal Streptavidin-tag; Streptavidin-tag (C); made in house
T1 sequence (P27487 39-766): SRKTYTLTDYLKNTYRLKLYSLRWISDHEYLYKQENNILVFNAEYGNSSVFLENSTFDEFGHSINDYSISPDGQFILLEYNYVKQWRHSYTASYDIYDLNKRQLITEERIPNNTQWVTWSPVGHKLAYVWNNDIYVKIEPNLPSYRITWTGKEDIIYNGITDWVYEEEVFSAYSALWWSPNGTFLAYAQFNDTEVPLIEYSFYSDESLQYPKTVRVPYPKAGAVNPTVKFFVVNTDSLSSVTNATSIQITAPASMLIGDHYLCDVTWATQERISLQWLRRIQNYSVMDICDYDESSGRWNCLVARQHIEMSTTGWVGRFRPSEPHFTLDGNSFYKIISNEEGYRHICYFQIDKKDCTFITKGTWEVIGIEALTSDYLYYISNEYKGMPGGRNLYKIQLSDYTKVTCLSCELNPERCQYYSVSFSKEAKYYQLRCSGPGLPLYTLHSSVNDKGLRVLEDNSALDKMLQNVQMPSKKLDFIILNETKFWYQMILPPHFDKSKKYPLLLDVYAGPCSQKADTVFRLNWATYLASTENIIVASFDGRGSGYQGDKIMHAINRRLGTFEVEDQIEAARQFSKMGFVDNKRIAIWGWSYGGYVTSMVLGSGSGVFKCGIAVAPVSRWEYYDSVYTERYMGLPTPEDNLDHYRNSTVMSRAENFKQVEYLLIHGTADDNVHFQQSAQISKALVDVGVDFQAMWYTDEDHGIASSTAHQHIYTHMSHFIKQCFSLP
The test can be described thus: DPP-IV inhibitory activity assay, fluorogenic substrate H-Gly-Pro-AMC. The note with it: recombinant human DPP-IV (aa 39-766), substrate H-Gly-Pro-AMC 10 μM, room temperature, 1 hour; read-out: IC50 (inhibitory activity to human DPP-4). It counts as biochemical. On the procedure:
Some of Compounds 1 to 40 were tested for their inhibitory activity to human DPP-IV.
Human DPP-IV consisting of amino acids 39 to 766 followed by a C-terminal Streptavidin-tag was expressed using the baculovirus system and purified to >80% purity. The enzyme was stored in 25 mM Tris buffer, pH 9.0, containing 300 mM NaCl at −80° C.
The fluorogenic substrates H-Gly-Pro-AMC was purchased from Bachem AG (Bubendorf, Switzerland). The substrate was kept as a 5 mM stock solution in DMSO at −20° C. All other chemicals were purchased from Sigma (Buchs, Switzerland).
The assay buffer for the DPP-IV reaction was 25 mM Tris/HCl, pH 7.5, containing 140 mM NaCl, 10 mM KCl and 0.05% (w/v) CHAPS.
The test compounds were dissolved in 90% DMSO/10% H2O (v/v). Serial dilutions of the compounds from 3 mM to 0.03 μM in 90% DMSO/10% H2O (v/v) followed by a 1:33.3 dilution in assay buffer was done in 96-well polypropylene plates using a CyBio Dilus 8-channel pipettor (CyBio AG, Jena, Germany) with tip change after each pipetting step. The compound solutions as well as the substrate and the enzyme solutions were transferred to the assay plates (384-well black Cliniplate; cat. no. 95040020 Labsystems Oy, Finland) by means of a CyBi-Well 96-channel pipettor (CyBio AG, Jena, Germany).
Enzyme kinetics were measured by mixing 10 μl of a 3-fold concentrated substrate solution in assay buffer (final substrate concentration was 10 μM) with 10 μl of the corresponding compound solution. The reactions were initiated by addition of 10 μl of a 3-fold concentrated solution of the enzyme in assay buffer. Final enzyme (active site) concentrations in the assay was […] for DPP-IV. Fluorescence product (AMC) formation was monitored for 1 hour at room temperature at 35 second intervals by measuring the fluorescence emission at 500 nm using an exitation wavelength of 350 nm in a TECAN Ultra fluorescence reader (TECAN, Maennedorf, Switzerland). The fluorescence in each well was excited by one flash per measurement. The Origin software package (Origin 7.5 Mircocal, Northampton, Mass., USA) was used to generate all graphs and to perform the IC50 calculations.
As a reminder, the IC50 is the point on the concentration scale where inhibition reaches its midpoint. As to `NCc1cc2ncc(-c3ccc(F)c(F)c3)n2cc1-c1ccc(Cl)cc1Cl` [Compound 4d, C-[6-(2,4-Dichloro-phenyl)-3-(3,4-difluoro-phenyl)-imidazo[1,2-a]pyridin-7-yl]-methylamine], the IC50 was 0.023 µM.
Then `COCCN(C)c1cnc2cc(CN)c(-c3ccc(Cl)cc3Cl)cn12` [Compound 7, [7-Aminomethyl-6-(2,4-dichloro-phenyl)-imidazo[1,2-a]pyridin-3-yl]-(2-methoxy-ethyl)-methyl-amine], with 0.023 µM; and `CN1CCC(C(=O)Nc2nnc3cc(CN)c(-c4ccc(Cl)cc4Cl)cn23)CC1` [Compound 18b, 1-Methyl-piperidine-4-carboxylic acid [7-aminomethyl-6-(2,4-dichloro-phenyl)-[1,2,4]triazolo[4,3-a]pyridin-3-yl]-amide], with 0.025 µM.
On to `NCc1cc2ncc(C(=O)N3CCOCC3)n2cc1-c1ccc(Cl)cc1Cl` [Compound 27a, [7-Aminomethyl-6-(2,4-dichloro-phenyl)-imidazo[1,2-a]pyridin-3-yl]-morpholin-4-yl-methanone], for which the IC50 is 0.022 µM.
